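Dose response: 5 concentrations. Exposure: 48 h. Format: 96-well plates. Endpoint: linear interpolation; highest concentration if not reached. GI50 marks 50% less growth.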 Activity calls are given as the source filed them. No stated cut-off is given here; in the data, active = GI50 up to about 1.1 µM and inactive = higher.
Experiments:
Test in all cases: growth of human tumour cells (NCI), 48 h
CAKI-1 = test system: CAKI-1
SK-MEL-2 = test system: SK-MEL-2
TK-10 = test system: TK-10
SF-268 = test system: SF-268
MDA-MB-435 = test system: MDA-MB-435
HOP-92 = test system: HOP-92
SW-620 = test system: SW-620
Malme-3M = test system: Malme-3M
UACC-257 = test system: UACC-257
BT-549 = test system: BT-549
T47D = test system: T47D
SK-OV-3 = test system: SK-OV-3
U-251 = test system: U-251
NCI-H23 = test system: NCI-H23
HL-60 = test system: HL-60
CCRF-CEM = test system: CCRF-CEM
786-0 = test system: 786-0
UO-31 = test system: UO-31
SR = test system: SR
A549 = test system: A549
SF-295 = test system: SF-295
SN12C = test system: SN12C
IGROV-1 = test system: IGROV-1
MDA-N = test system: MDA-N
NCI-H226 = test system: NCI-H226
UACC-62 = test system: UACC-62
COLO 205 = test system: COLO 205
PC-3 = test system: PC-3
HOP-62 = test system: HOP-62
RXF 393 = test system: RXF 393
SK-MEL-5 = test system: SK-MEL-5
NCI-H460 = test system: NCI-H460
HCT-116 = test system: HCT-116
OVCAR-8 = test system: OVCAR-8
MOLT-4 = test system: MOLT-4
SF-539 = test system: SF-539
OVCAR-4 = test system: OVCAR-4
Hs-578T = test system: Hs-578T
LOX IMVI = test system: LOX IMVI
MCF7 = test system: MCF7
SNB-75 = test system: SNB-75
MDA-MB-231 = test system: MDA-MB-231
EKVX = test system: EKVX
OVCAR-3 = test system: OVCAR-3
M14 = test system: M14
KM12 = test system: KM12
SK-MEL-28 = test system: SK-MEL-28
DU-145 = test system: DU-145
RPMI-8226 = test system: RPMI-8226
K562 = test system: K562
HT-29 = test system: HT-29
NCI/ADR-RES = test system: NCI/ADR-RES
SNB-19 = test system: SNB-19
HCT-15 = test system: HCT-15
NCI-H522 = test system: NCI-H522
HCC 2998 = test system: HCC 2998
OVCAR-5 = test system: OVCAR-5
A498 = test system: A498
ACHN = test system: ACHN

CC(=O)c1sc2c(c1OC(=O)c1ccco1)c(=O)n(-c1ccccc1)c(=S)n2-c1ccccc1
GI50 (CAKI-1): 32.5 µM (inactive)
GI50 (SK-MEL-2): 10.4 µM (inactive)
GI50 (TK-10): 31.8 µM (inactive)
GI50 (SF-268): 23.2 µM (inactive)
GI50 (MDA-MB-435): 15 µM (inactive)
GI50 (HOP-92): 5.43 µM (inactive)
GI50 (SW-620): 26.6 µM (inactive)
GI50 (Malme-3M): 5.08 µM (inactive)
GI50 (UACC-257): 27.5 µM (inactive)
GI50 (BT-549): 18.1 µM (inactive)
GI50 (T47D): 13 µM (inactive)
GI50 (SK-OV-3): 16 µM (inactive)
GI50 (U-251): 23.3 µM (inactive)
GI50 (NCI-H23): 26.9 µM (inactive)
GI50 (HL-60): 19.8 µM (inactive)
GI50 (CCRF-CEM): 3.93 µM (inactive)
GI50 (786-0): 26.7 µM (inactive)
GI50 (UO-31): 20.3 µM (inactive)
GI50 (SR): 29.4 µM (inactive)
GI50 (A549): 38.2 µM (inactive)
GI50 (SF-295): 5.16 µM (inactive)
GI50 (SN12C): 26 µM (inactive)
GI50 (IGROV-1): 23.1 µM (inactive)
GI50 (MDA-N): 24.8 µM (inactive)
GI50 (NCI-H226): 3.58 µM (inactive)
GI50 (UACC-62): > 10 µM (inactive)
GI50 (COLO 205): 17.4 µM (inactive)
GI50 (PC-3): 16.9 µM (inactive)
GI50 (HOP-62): 25.1 µM (inactive)
GI50 (RXF 393): 12.9 µM (inactive)
GI50 (SK-MEL-5): 5.81 µM (inactive)
GI50 (NCI-H460): 31 µM (inactive)
GI50 (HCT-116): 18.2 µM (inactive)
GI50 (OVCAR-8): 30.3 µM (inactive)
GI50 (MOLT-4): 19.5 µM (inactive)
GI50 (SF-539): 4.19 µM (inactive)
GI50 (OVCAR-4): 28.9 µM (inactive)
GI50 (Hs-578T): 2.28 µM (inactive)
GI50 (LOX IMVI): 14 µM (inactive)
GI50 (MCF7): 22.6 µM (inactive)
GI50 (SNB-75): 21.8 µM (inactive)
GI50 (MDA-MB-231): 21.5 µM (inactive)
GI50 (EKVX): 26.4 µM (inactive)
GI50 (OVCAR-3): 32.8 µM (inactive)
GI50 (M14): 8.11 µM (inactive)
GI50 (KM12): 21.1 µM (inactive)
GI50 (SK-MEL-28): 23.8 µM (inactive)
GI50 (DU-145): 26.8 µM (inactive)
GI50 (RPMI-8226): 4.89 µM (inactive)
GI50 (K562): 30.8 µM (inactive)
GI50 (HT-29): 6 µM (inactive)
GI50 (NCI/ADR-RES): 18.4 µM (inactive)
GI50 (SNB-19): 28.2 µM (inactive)
GI50 (HCT-15): 18.7 µM
GI50 (NCI-H522): 19.9 µM (inactive)

COc1cc(OC)c2nccc(NCCCN(C)C)c2c1[N+](=O)[O-]
GI50 (CAKI-1): > 100 µM (inactive)
GI50 (SK-MEL-2): > 100 µM (inactive)
GI50 (TK-10): > 100 µM (inactive)
GI50 (SF-268): > 100 µM (inactive)
GI50 (MDA-MB-435): > 100 µM (inactive)
GI50 (HOP-92): 61.1 µM (inactive)
GI50 (SW-620): 95.9 µM (inactive)
GI50 (HCC 2998): > 100 µM (inactive)
GI50 (Malme-3M): 55.1 µM (inactive)
GI50 (UACC-257): 58.3 µM (inactive)
GI50 (BT-549): > 100 µM (inactive)
GI50 (T47D): > 100 µM (inactive)
GI50 (SK-OV-3): > 100 µM (inactive)
GI50 (U-251): > 100 µM (inactive)
GI50 (NCI-H23): > 100 µM (inactive)
GI50 (HL-60): 39.3 µM (inactive)
GI50 (CCRF-CEM): > 100 µM (inactive)
GI50 (786-0): > 100 µM (inactive)
GI50 (UO-31): > 100 µM (inactive)
GI50 (SR): 24.7 µM (inactive)
GI50 (A549): > 100 µM (inactive)
GI50 (SF-295): > 100 µM (inactive)
GI50 (OVCAR-5): > 100 µM (inactive)
GI50 (SN12C): > 100 µM (inactive)
GI50 (IGROV-1): 49.5 µM (inactive)
GI50 (MDA-N): > 100 µM (inactive)
GI50 (UACC-62): > 100 µM (inactive)
GI50 (COLO 205): 34.1 µM (inactive)
GI50 (PC-3): > 100 µM (inactive)
GI50 (HOP-62): > 100 µM (inactive)
GI50 (SK-MEL-5): > 100 µM (inactive)
GI50 (NCI-H460): 65.3 µM (inactive)
GI50 (HCT-116): 62.4 µM (inactive)
GI50 (OVCAR-8): > 100 µM (inactive)
GI50 (MOLT-4): > 100 µM (inactive)
GI50 (SF-539): 45.7 µM (inactive)
GI50 (OVCAR-4): > 100 µM (inactive)
GI50 (A498): > 100 µM (inactive)
GI50 (Hs-578T): > 100 µM (inactive)
GI50 (LOX IMVI): > 100 µM (inactive)
GI50 (MCF7): > 100 µM (inactive)
GI50 (SNB-75): 30.9 µM (inactive)
GI50 (MDA-MB-231): > 100 µM (inactive)
GI50 (OVCAR-3): 49.3 µM (inactive)
GI50 (M14): 27.3 µM (inactive)
GI50 (ACHN): > 100 µM (inactive)
GI50 (KM12): > 100 µM (inactive)
GI50 (SK-MEL-28): > 100 µM (inactive)
GI50 (DU-145): > 100 µM (inactive)
GI50 (RPMI-8226): > 100 µM (inactive)
GI50 (K562): 87.9 µM (inactive)
GI50 (HT-29): 35 µM (inactive)
GI50 (NCI/ADR-RES): > 100 µM (inactive)
GI50 (SNB-19): > 100 µM (inactive)
GI50 (HCT-15): > 100 µM
GI50 (NCI-H522): > 100 µM (inactive)
